Results taken from publication PMC5651844, “YEATS2 links histone acetylation to tumorigenesis of non-small cell lung cancer” (Nature Communications, 2017).
Where “and” joins values, the source holds several entries; their conditions need not be identical. Equal entries are not always repeated. Entries after “also recorded” stand apart in the source; their conditions may differ. Ends that are not written are not given here.

Key:
AF9 YEATS domain = details: ref Li et al., 2014; cited from earlier work
[1] = target: T1, YEATS2 YEATS domain (aa 201–332), wild type (Homo sapiens, UniProt Q9ULM3); experiment: Isothermal titration calorimetry (ITC), wild-type YEATS domain; type: binding; details: for binding in ITC, in words: WT YEATS2 YEATS domain
T1 construct: encompassing residues 201–332 of human YEATS2; 10×His-SUMO (N, cleaved yes); made in house; host or cells: Escherichia coli BL21 (DE3)
T1 sequence (Q9ULM3 201-332): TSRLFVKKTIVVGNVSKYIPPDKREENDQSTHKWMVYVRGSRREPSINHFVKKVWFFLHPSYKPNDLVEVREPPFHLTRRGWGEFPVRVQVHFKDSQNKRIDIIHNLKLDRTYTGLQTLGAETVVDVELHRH
Method: The YEATS2 domain encompassing residues 201–332 of human YEATS2 was cloned into a pSUMOH10 vector (an in house modified vector based on pET28b) containing an N-terminal 10×His-SUMO tag. The recombinant YEATS2_201–332 was overexpressed in Escherichia coli BL21 (DE3). After overnight induction by 0.4 mM isopropyl β-D-thiogalactoside at 16 °C in TB medium, cells were collected and suspended in buffer: 20 mM Tris, pH 7.5, 0.5 M sodium citrate, 5% glycerol, 1 mM phenylmethylsulfonyl fluoride, and 20 mM imidazole. After cell lysis and centrifugation, the recombinant protein was purified to homogeneity over HisTrap, and the 10xHis-SUMO tag was cleaved by ULP1 overnight at 4 °C then removed by reloaded onto the HisTrap column. The free YEATS2_201–332 protein was finally polished by size-exclusion chromatography on a Superdex G75 column (GE Healthcare) in elution buffer: 20 mM Tris, pH 7.5, 0.5 M sodium citrate, 5% glycerol, and 2 mM β-mercaptoethanol. All YEATS2_201–332 mutants were purified in essentially the same procedures as the wild-type protein. All mutant proteins were expressed and purified essentially the same as WT YEATS2 YEATS. […] Cells were pelleted via centrifugation, flash-frozen in liquid nitrogen, and lysed by sonication. Cell lysate was centrifuged, and the supernatant was incubated with glutathione Sepharose 4B beads (GE Healthcare). The GST tag was cleaved with Prescission protease.
All calorimetric experiments of the wild type or mutant YEATS domain proteins were conducted at 15 °C using a MicroCal iTC200 instrument (GE Healthcare). The YEATS2_201–332 samples were dialyzed in the following buffer: 20 mM Tris 7.5, 0.5 M sodium citrate, 5% glycerol, and 2 mM β-mercaptoethanol. Protein concentration was determined by absorbance spectroscopy at 280 nm. Peptides (>95% purity) were quantified by weighing on a large scale and then aliquoted and freeze-dried for individual use. Acquired calorimetric titration curves were analyzed using Origin 7.0 (OriginLab) using the “One Set of Binding Sites” fitting model.

ENL YEATS domain = details: ref Wan et al., 2017; cited from earlier work
[2] = system: 15N-labeled YEATS domain of YEATS2 (aa 201–350); experiment: NMR titration, 1H,15N HSQC; type: binding, human; details: 0.1 mM 15N-labeled YEATS domain, 1× PBS pH 6.8, 100 mM KCl, 298 K, increasing peptide (H3K27ac21–31 or H3K9ac1–12)
Method: The YEATS2 domain encompassing residues 201–332 of human YEATS2 was cloned into a pSUMOH10 vector (an in house modified vector based on pET28b) containing an N-terminal 10×His-SUMO tag. The recombinant YEATS2_201–332 was overexpressed in Escherichia coli BL21 (DE3). After overnight induction by 0.4 mM isopropyl β-D-thiogalactoside at 16 °C in TB medium, cells were collected and suspended in buffer: 20 mM Tris, pH 7.5, 0.5 M sodium citrate, 5% glycerol, 1 mM phenylmethylsulfonyl fluoride, and 20 mM imidazole. After cell lysis and centrifugation, the recombinant protein was purified to homogeneity over HisTrap, and the 10xHis-SUMO tag was cleaved by ULP1 overnight at 4 °C then removed by reloaded onto the HisTrap column. The free YEATS2_201–332 protein was finally polished by size-exclusion chromatography on a Superdex G75 column (GE Healthcare) in elution buffer: 20 mM Tris, pH 7.5, 0.5 M sodium citrate, 5% glycerol, and 2 mM β-mercaptoethanol. All YEATS2_201–332 mutants were purified in essentially the same procedures as the wild-type protein. All mutant proteins were expressed and purified essentially the same as WT YEATS2 YEATS. For NMR titrations, the YEATS domain (aa 201–350) of YEATS2 was expressed in BL21(DE3) RIL cells as a GST-fusion protein in minimal media supplemented with ^15NH4Cl (Sigma). […]

GST-YEATS2 YEATS domain = experiment: Histone peptide pulldown, western blot; type: binding, human; details: 1 µg biotinylated peptide, 1–2 µg GST-fused protein, 4 °C overnight, streptavidin beads
Method: An aliquot of 1 µg of biotinylated histone peptides with different modifications were incubated with 1–2 µg of GST-fused proteins in binding buffer (50 mM Tris-HCl 7.5, 250 mM NaCl, 0.1% NP-40, 1 mM phenylmethyl sulphonyl fluoride (PMSF)) at 4 °C overnight. Streptavidin beads (Amersham) were added to the mixture, and the mixture was incubated for 1 h with rotation. The beads were then washed three times and analyzed using SDS-PAGE and western blotting. For GST pulldown, 2 µg protein were incubated with 10 µg of calf thymus total histones (Worthington) in binding buffer (50 mM Tris-HCl 7.5, 1 M NaCl, 1% NP-40, 0.5 mM EDTA, 1 mM PMSF plus protease inhibitors (Roche)) at 4 °C overnight, followed by an additional 1 h Glutathione Sepharose beads (Amersham) incubation. The beads were then washed five times and analyzed using SDS-PAGE and western blotting.

Substance | Kd (AF9 YEATS domain) | binding in ITC, in words [1] | Kd ([1]; main text and Fig. 3e, ITC at 15 °C, N.D. = not detected, read-out: dissociation constant (KD)) [µM] | Kd (ENL YEATS domain) [µM] | chemical shift perturbations in 1H,15N HSQC spectra [2] | binding in histone peptide pulldown (GST-YEATS2 YEATS domain) | binding in ITC, in words ([1]; listed as H3K14ac)
H3K27ac: K27-acetylated H3 peptide: ITC text = H3 15–39K27ac; NMR = H3K27ac21–31; pulldown = biotinylated peptide; cited AF9/ENL peptides unspecified (ATKAARK(Ac)SAPA) | ~7 µM and 7 µM | best binding substrate | 50 | 30 | global chemical shift perturbations | bound specifically | –
TARKSTGGK(ac)A [H36-15K14ac, histone H3 peptide, residues 6-15, acetylated at K14] | – | – | – | – | – | – | weak or no binding; also recorded: no detectable binding
